Data reported in patent publication US20230061319A1, “METHODS OF TREATING TUMORS” (CoImmune, Inc., priority 2020, published 2023).

Tested on: MART-1 specific CTLs
Test: Priming of MART-1 specific CTLs by PME-CD40L DCs in the presence of mTOR inhibitors
Type: cell-based, human
Details: in the presence of the mTOR inhibitor, 10 ng/ml to 1 ug/ml
Procedure: 300 x 10^6 peripheral blood mononuclear cells (PBMCs) were cultured in 30 mL AIM-V media (Thermo Fisher Scientific) in T150 flasks (Corning) for 2 hours to provide for the adherence of monocytes. Non-adherent cells were removed by washing the monolayers twice with cold phosphate buffered saline (PBS) (Cambrex), and the remaining monocytes were cultured in X-VIVO 15 medium (Cambrex) for 5 days, supplemented with 1000 U/mL each of granulocyte macrophage-colony stimulating factor (GM-CSF) (Bayer AG, Leukine® liquid) and IL-4 (R&D Systems). To achieve DC maturation, immature DCs were first cultured on day 5 with 10 ng/mL tumor necrosis factor alpha (TNF-α) (R&D Systems), 1000 µ/mL interferon gamma (IFN-y) (Actimmune), and 1 µg/mL prostaglandin E2 (PGE2) (Sigma). On day 6, phenotypically mature DCs were co-electroporated with RNA encoding CD40L (Argos Lot No. 101606 JSC) at a concentration of 3 ug per million DCs plus either human cytomegalovirus (CMV) pp65 or MART-1 encoding RNAs at 2 µg per million DCs (CMVpp65 RNA-Argos Lot No 071107XF, MART-1-APL RNA-Argos Lot No. 011909HC). […]
PME-CD40L DCs derived from HLA-A2-positive donors and transfected with antigen-encoding mRNAs were co-cultured with purified CD8^+ T cells. […] Induction of primary immune responses to MART-1 and memory/recall responses to CMV pp65 were measured on day 10. […]

CO[C@H]1C[C@@H]2CC[C@@H](C)[C@@](O)(O2)C(=O)C(=O)N2CCCC[C@H]2C(=O)O[C@H]([C@H](C)C[C@@H]2CC[C@@H](OCCO)[C@H](OC)C2)CC(=O)[C@H](C)/C=C(\C)[C@@H](O)[C@@H](OC)C(=O)[C@H](C)C[C@H](C)/C=C/C=C/C=C/1C [everolimus]
priming of MART-1 specific CTLs by PME-CD40L DC: able to prime
